Experiments:
ISC-enriched organoids [1] = experiment: Primary screen, 384-well 2.5-D organoid differentiation (ENR+CD, 6 days): carbachol-induced lysozyme secretion (LYZ.S); type: cell-based, murine; conditions: primary screen, vs plate median
Source text: (§1) High-throughput screening.

ISC-enriched organoids [2] = experiment: Primary screen, 384-well 2.5-D organoid differentiation (ENR+CD, 6 days, Target Selective Inhibitor Library, vs whole-plate median): ATP (CellTiter-Glo 3D, CTG); conditions: primary screen; for Dose.FC.CTG (log 2 fold change): vs plate median
ISC-enriched organoids [3] = experiment: Primary screen, 384-well 2.5-D organoid differentiation (ENR+CD, 6 days): basal lysozyme secretion (LYZ.NS); type: cell-based, murine; conditions: primary screen; for Dose.FC.LYZ.NS (log 2 fold change): vs plate median
Source text: as §1

Row | Compound | Dose.FC.LYZ.S (log 2 fold change) (ISC-enriched organoids [1]; Dose 0.08 uM) | Dose.FC.LYZ.S (log 2 fold change) (ISC-enriched organoids [1]; Dose 0.40 uM) | Dose.FC.LYZ.S (log 2 fold change) (ISC-enriched organoids [1]; Dose 2.00 uM) | Dose.FC.LYZ.S (log 2 fold change) (ISC-enriched organoids [1]; Dose 10.00 uM) | Z.CTG (standard z score) (ISC-enriched organoids [2]; Dose 0.08 uM) | Dose.FC.CTG (log 2 fold change) (ISC-enriched organoids [2]; Dose 0.08 uM) | Z.CTG (standard z score) (ISC-enriched organoids [2]; Dose 0.40 uM) | Dose.FC.CTG (log 2 fold change) (ISC-enriched organoids [2]; Dose 0.40 uM) | Z.CTG (standard z score) (ISC-enriched organoids [2]; Dose 2.00 uM) | Dose.FC.CTG (log 2 fold change) (ISC-enriched organoids [2]; Dose 2.00 uM) | Z.CTG (standard z score) (ISC-enriched organoids [2]; Dose 10.00 uM) | Dose.FC.CTG (log 2 fold change) (ISC-enriched organoids [2]; Dose 10.00 uM) | Z.LYZ.NS (standard z score) (ISC-enriched organoids [3]; Dose 0.08 uM) | Dose.FC.LYZ.NS (log 2 fold change) (ISC-enriched organoids [3]; Dose 0.08 uM) | Z.LYZ.NS (standard z score) (ISC-enriched organoids [3]; Dose 0.40 uM) | Dose.FC.LYZ.NS (log 2 fold change) (ISC-enriched organoids [3]; Dose 0.40 uM) | Z.LYZ.NS (standard z score) (ISC-enriched organoids [3]; Dose 2.00 uM) | Dose.FC.LYZ.NS (log 2 fold change) (ISC-enriched organoids [3]; Dose 2.00 uM) | Z.LYZ.NS (standard z score) (ISC-enriched organoids [3]; Dose 10.00 uM) | Dose.FC.LYZ.NS (log 2 fold change) (ISC-enriched organoids [3]; Dose 10.00 uM)
1 | CNC(=O)c1ccc2cc([C@@]3(O)CCn4cncc43)ccc2c1 [TAK-700 (Orteronel)] | 0.113 | 0.090 | 0.093 | 0.032 | −0.659 | −0.276 | −0.056 | −0.024 | −0.202 | −0.084 | 0.219 | 0.092 | 1.535 | 0.176 | 1.585 | 0.182 | 1.058 | 0.121 | −0.018 | −0.002
2 | O=C1CC(=O)c2c(Cl)c(Cl)c(Cl)c(Cl)c21 [TCID] | 0.062 | 0.017 | −0.066 | −0.054 | −0.325 | −0.136 | −0.017 | −0.007 | −0.517 | −0.217 | −0.545 | −0.228 | 0.431 | 0.049 | −0.155 | −0.018 | 0.578 | 0.066 | −0.159 | −0.018
3 | COc1ccc(C(=O)Nc2sc3c(c2C(N)=O)CCCC3)cc1OC [TCS 359] | 0.098 | 0.069 | −0.006 | 0.026 | 0.358 | 0.150 | 0.598 | 0.250 | 0.119 | 0.050 | −0.212 | −0.089 | 0.742 | 0.085 | 0.502 | 0.058 | 0.156 | 0.018 | −0.072 | −0.008

— patent US20230398130A1, “METHODS AND COMPOSITIONS FOR DIFFERENTIATING STEM CELLS” (Massachusetts Institute of Technology, priority 2020, published 2023)
